Source: patent publication US7569695B2, “Dyes for the detection or quantification of desirable target molecules” (Enzo Life Sciences, Inc., priority 2005, dated 2009)

What was measured:
BSA = BSA (Bos taurus, UniProt P02769); assay: Fluorescence enhancement of dyes upon binding to a protein (BSA); conditions: ratio of fluorescence (emission maxima) with BSA vs without, 1 μM dye, 150 μg BSA; for Fluorescence Enhancement with SDS: 10 mM TRIS pH 7.5, 0.05% SDS; for Fluorescence Enhancement without SDS: 10 mM TRIS pH 7.5, no SDS
Sequence of BSA (P02769 25-607): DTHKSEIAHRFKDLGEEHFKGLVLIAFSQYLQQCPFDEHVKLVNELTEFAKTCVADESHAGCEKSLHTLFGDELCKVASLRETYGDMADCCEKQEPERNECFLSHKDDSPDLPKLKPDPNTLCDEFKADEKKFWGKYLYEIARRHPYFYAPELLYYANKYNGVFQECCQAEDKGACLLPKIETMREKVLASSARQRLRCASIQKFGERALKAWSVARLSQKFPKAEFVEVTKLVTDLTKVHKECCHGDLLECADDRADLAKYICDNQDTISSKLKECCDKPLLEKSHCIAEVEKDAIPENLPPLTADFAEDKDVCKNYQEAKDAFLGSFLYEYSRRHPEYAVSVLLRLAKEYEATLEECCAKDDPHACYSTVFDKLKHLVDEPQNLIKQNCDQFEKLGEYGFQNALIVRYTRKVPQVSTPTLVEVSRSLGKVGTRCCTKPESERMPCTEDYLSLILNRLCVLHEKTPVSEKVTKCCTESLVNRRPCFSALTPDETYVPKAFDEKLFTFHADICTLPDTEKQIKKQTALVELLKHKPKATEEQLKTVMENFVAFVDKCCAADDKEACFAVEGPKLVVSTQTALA
Experimental: Some of the dyes of the preceding examples were tested for changes in fluorescence upon binding to a protein (BSA). 1 μM of each dye was mixed with 150 μg of BSA in 10 mM TRIS (pH 7.5) with and without 0.05% SDS. Measurements were carried out on a standard fluorometer with and without BSA being present. Ratios were then calculated for the amount of fluorescence (emission maxima) in the presence of BSA compared to its absence.

[1] = test system: 78 bp amplicon from the anti-sense C construct; assay: Amplification of nucleic acids on the Light Cycler in the presence of dye (Example 33); assay type: biochemical
Experimental: A target template was amplified on the Light Cycler (Roche) in the presence of various amounts of Dye 109 from Example 14. As a control, various amounts of SYBR Green (Molecular Probes, Eugene, Oreg.) were also included. The template was a 1:500 dilution of a 78 bp amplicon made in a previous reaction from the anti-sense C construct described in Liu et al. 1997 (J. Virol. 71: 4079-4085). A 2×PCR mix was made up of 20 mM Tris pH 8.3, 50 mM KCl, 4 mM MgCl2, 0.4 mM dCTP, 0.4 mM dGTP, 0.4 mM dATP, 0.8 mM dUTP, […] and […].
The Forward Primer sequence is comprised of 20 nucleotides: 5′ […] 3′ (SEQ ID NO: 1). It is an artificial sequence comprising a fusion of human Ul and HIV sequences. Bases 1-7 (CATGATC) of the first sequence are derived from plasmid pHSD-4 and comprise sequences from the human Ul gene. Bases […] (GATCCGGATGGGAGGTG) of the second sequence are derived from a region of the BAL strain of HIV containing the Tat/Rev splice acceptor site.
The Reverse Primer sequence is comprised of 22 nucleotides: 5′[…] (SEQ ID NO: 2). It is an artificial sequence comprising a fusion of human Ul and HIV sequences. Bases 1-11 (GCACATCCGGA) of the first sequence are derived from plasmid pHSD-4 and comprise sequences from the human Ul gene. Bases […] (GATCCGGATGGGAGGTG) of the second sequence are derived from a region of the BAL strain of HIV containing the Tat/Rev splice acceptor site.
The 78 bp amplicon synthesized with Forward Primer (SEQ ID NO: 1) and Reverse Primer (SEQ ID NO: 2) has the following sequence: 5′ […] 3′ (SEQ ID NO: 3). It is an artificial sequence comprising a fusion of human Ul and HIV sequences. Bases 1-11 (GCACATCCGGA) and 68-78 (TCCGGATGTGC) are derived from plasmid pHSD-4 and comprise sequences from the human Ul gene. Bases […] are derived from a region of the BAL strain of HIV containing the Tat/Rev splice acceptor site.
A master mixture was made up of: • 350 µl of 2×PCR mix described above • 14 µl of 25 mM MgCl2 • 122.5 µl of DEPC treated H2O • 14 ul of 1 u/l ung (Epicentre) • 7 µl of 10 mg/ml BSA (New England Biolabs, Beverly, Mass.) • 7 l Taq polymease (Perkin Elmer)+7 µl of TaqStart (Clontech) • 2.5 µl of target template+2.0 l of various dilutions of dyes were added to 15.5 µl of Master mixture, incubated at 45° C. for 10 minutes and then amplified by: • 1) Melting • 2 minutes @ 95° C. • 2) Cycling • a) Denaturation step: 0 seconds @ 95° C. • b) Annealing step: 5 seconds @ 69° C. for first cycle; subsequent cycles were each reduced by 0.5° C. until 65° C. was reached and all annealing steps in further cycles were carried out at this temperature • c) Extension step: 5 seconds @ 72° C. • 3) After completion of 56 cycles, all samples were maintained at 4° C. until analyzed.
After the amplification reactions were finished, the samples were analyzed by gel electrophoresis. For SYBR Green, the recommended reaction concentration is 1:10,000. As such, the amplification products shown in lanes 5 and 6 using 2 l of […] dilution in a 20 l reaction (final=1:8,000) is approximately representative of the product from the standard procedure. For Dye 109, the reactions are listed in terms of dilutions of a stock of Dye 109 with an OD reading of 200 taken at 495 nm. […] However, when lower dilutions of the dyes were added there was no inhibition of the process.

[2] = test system: 78 bp amplicon from the anti-sense C construct; assay: Amplification of nucleic acids in the presence of dye using a standard PCR machine (Example 34); assay type: biochemical; conditions: for amplicon synthesis (gel analysis, FIG. 2): 20 cycles
Experimental: The experiment shown in Example 33 was repeated using a standard PCR machine for synthesis to see if the effects observed in Example 33 was dependent upon the rapid heating and cooling steps used in the Light Cycler.
A master mixture was made up of: • 500 µl of 2× PCR mix described in example 33 • 20 µl of 25 mM MgCl2 • 175 µl of DEPC treated H2O • 10 ul of 1 u/l ung (Epicentre) • 10 µl of 10 mg/ml BSA (New England Biolabs, Beverly, Mass.) • 10 l Taq polymease (Perkin Elmer)+10 µl of TaqStart (Clontech) PCR conditions were 2.5 µl of target template+2.0 l of dye was added to 15.5 µl of Master mixture incubated at 45° C. for 10 minutes and then amplified using cycles of: • a) 94° C. for 30 seconds • b) 65° C. for 30 seconds • c) 72° C. for 1 minute
A duplicate set of samples was amplified with one set being taken out after 20 cycles of amplification and the second set undergoing 40 cycles. […] The other effect previously observed was also seen, i.e. non-target amplicon synthesis seen in the no Dye reaction (lane 1) was reduced with the 1:200 dilution of SYBR Green and the 1:10 dilution of Dye 109 again repeating the results of Example 33.

[3] = test system: 78 bp amplicon of the anti-sense C construct; assay: Amplification on the Light Cycler in the presence of Dye 122 and 109a, 19 cycles (Example 35); assay type: biochemical
Text: A target template was amplified on the Light Cycler (Roche) in the presence of various amounts of SYBR Green and Dye 122 from Example 32. In addition, a byproduct from the silica gel chromatography of Dye 109 in step (g) of Example 14 was also used. This compound is believed to have a single protonation of one of the amines of Dye 109 and as such will be termed Dye 109a. The stock of Dye 122 was OD=200 measured at 488 nm and the stock of Dye 109a was OD=200 measured at 498 nm. The template was a 1:50,000 dilution of the 78 bp amplicon of the anti-sense C construct described previously. • A master-mixture was made up of: • 350 µl of 2×PCR mix described in Example 33 • 14 l of 25 mM MgCl2 • 175.0 l of DEPC treated H2O • 7 l of 10 mg/ml BSA (New England Biolabs, Beverly, Mass.) • 7 l Taq polymease (Perkin Elmer)+7 l of TaqStart (Clontech)
2.0 l of target template+2.0 l of various dye dilutions were added to 16 µl of Master mixture, and then amplified as described previously in Example 33 except that the incubation at 45° C. for 10 minutes was eliminated since ung was not used for this series of amplifications. The amplification was stopped after 19 cycles. The results of this series of amplifications are seen in FIG. 3. […] For Dye 109a, similar features were seen where 1:10 was inhibitory (lane 18) and 1:30 was optimal (lanes 19 and 20).

[4] = test system: 78 bp amplicon of the anti-sense C construct; assay: Amplification on the Light Cycler with closer series of dye dilutions, 17 cycles (Example 36); assay type: biochemical; conditions: a fairly broad spectrum of dye dilutions
Experimental: A series of dilutions that were closer together was carried out for both Dye 109a and Dye 122. The target template was amplified on the Light Cycler and the template was the 1:50,000 dilution of the 78 bp amplicon of the anti-sense C construct described previously.
A master mixture was made up as described previously in Example 35.
2.0 l of target template (1:50,000 dilution of the antisense C amplicon)+2.0 l of various dye concentrations were added to 16 µl of Master mix and then amplified as described previously in Example 33 and stopping after 17 amplification cycles.

anti-sense C amplicon = assay: Amplification of various amounts of target with fixed dye levels, 29 cycles (Example 37); assay type: biochemical
Experimental: In the previous experiments, a fixed amount of target was amplified in the presence of varying level of dyes. The eventual use of these dyes is going to be with a fixed amount of dye and varying levels of targets. As such, an experiment was carried out using previously determined optimal levels of dyes and various amounts of input target (again using the anti-sense C as a model). • Dilution 1=1:100,000 • Dilution 2=1:1,000,000 • Dilution 3=1:10,000,000 • Dilution 4=1:100,000,000 • Dilution 5=1:1,000,000,000 • Dilution 6=1:10,000,000,000
Selected amounts of target template were amplified on the Light Cycler (Roche) in the presence of various amounts of Dye 122, Dye 109a and SYBR Green.
A master mixture was made up of: • 380 l of 2×PCR mix described in Example 33 • 15.2 l of 25 mM MgCl2 • 190.0 l of DEPC treated H2O • 7.6 l of 10 mg/ml BSA (New England Biolabs, Beverly, Mass.) • 7.6 l Taq polymease (Perkin Elmer)+7.6 l of TaqStart (Clontech)
2.0 l of target template (1:50,000 dilution of the antisense C amplicon)+2.0 l of various dye concentrations were added to 16 µl of Master mixture and amplified as described previously in Example 33 stopping after 29 cycles. Dye additions were from the 1:1000 dilution of SYBR Green, 1:30 of Dye 109a and 1:30 of Dye 122.
At the highest input level (Dil 2 1:1,000,000 dilution of amplicon) no evidence of amplification is seen in the sample without dye.

| Compound | Fluorescence Enhancement with SDS (BSA) | Fluorescence Enhancement without SDS (BSA) | also measured |
| --- | --- | --- | --- |
| C[n+]1c(/C=C/c2cc3c4c(c2)CCCN4CCC3)sc2cc(S(=O)(=O)N3CCCCC3)ccc21 [Dye 101] | 140 | 33 |  |
| CCn1c2ccccc2c2cc(/C=C/c3sc4cc(S(=O)(=O)N5CCCCC5)ccc4[n+]3CCCCS(=O)(=O)[O-])ccc21 [Dye 103] | 10 | None |  |
| CN(C)CCN(C)C1=C/C(=C\c2sc3cc(S(=O)(=O)N4CCCCC4)ccc3[n+]2C)c2ccccc2N1c1ccccc1 [Dye 109] |  |  | synthesis of target derived amplicons compared to the reaction without any dye ([1]; 1:25 dilution of Dye 109 stock (OD 200 at 495 nm), lanes 11 and 12): enhancement of overall synthesis of target derived amplicons; synthesis of non-target derived amplicons ([1]; 1:25 dilution of Dye 109 stock, lanes 11 and 12): elimination or suppression of the synthesis of non-target derived amplicons; detection of real time synthesis in the Light Cycler ([1]; data not shown): could be used for this purpose; amplification (gel analysis, FIG. 1) ([1]; undiluted Dye 109 stock (OD 200 at 495 nm), 56 cycles): strong inhibition of amplification; amplicon synthesis (gel analysis, FIG. 2) ([2]; 1:10 dilution of Dye 109, lanes 12 and 13): a single discrete band; amplicon synthesis (gel analysis, FIG. 2) ([2]; 1:15 dilution of Dye 109, lanes 14 and 15): lesser amounts of synthesis; amplicon synthesis (gel analysis, FIG. 2) ([2]; 1:20 and 1:25 dilutions of Dye 109, lanes 16/17 and 18/19): faint bands; non-target amplicon synthesis compared to the no Dye reaction ([2]; 40 cycles, 1:10 dilution of Dye 109): reduced |
| CCCCCCN(CCCCCC)c1ccc(C=Cc2sc3cc(S(=O)(=O)N(CCCCCC)CCCCCC)ccc3[n+]2C)cc1 [Dye 113] | 33 | None |  |
| CCCCCCN(CCCCCC)c1ccc(C=Cc2sc3cc(S(=O)(=O)N4CCCCC4)ccc3[n+]2CCCCS(=O)(=O)[O-])cc1 [Dye 114] | 70 | 6 |  |
| CCCCCCN(CCCCCC)c1ccc(C=Cc2cc[n+](CCCP(=O)(OCC)OCC)c3ccccc23)cc1.[Br-] [Dye 115] | 78 | 100 |  |
| CCOP(=O)(CCC[n+]1ccc(C=Cc2ccc3c(c2)c2ccccc2n3CC)c2ccccc21)OCC.[Br-] [Dye 116] | None | 12 |  |
| CCCCN(CCCC)c1ccc(C=Cc2cc[n+](CCCP(=O)(OCC)OCC)c3ccccc23)cc1.[Br-] [Dye 119] | 92 | 95 |  |
| CN(C)CCN(C)C1=C/C(=C\c2sc3cc(S(=O)(=O)N4CCCCC4)ccc3[n+]2C)c2ccccc2N1c1ccccc1 [Dye 122] |  |  | amplification (gel analysis, FIG. 3) ([3]; 1:10 dilution of dye stock (OD=200)): inhibitory; amplification (gel analysis, FIG. 3) ([3]; 1:30 dilution of dye stock (OD=200)): the best; amplification (gel analysis, FIG. 3) ([3]; next dye dilutions (1:100 etc.)): less amplification; amplification (gel analysis, FIG. 4) [4]: strong enhancement effect; amplification product (gel analysis, FIG. 5) (anti-sense C amplicon; Dil 2 (1:1,000,000) target input, 1:30 dilution of dye): strong prominent band; amplification product (gel analysis, FIG. 5) (anti-sense C amplicon; target inputs diluted 10-100× more than Dil 2, 1:30 dilution of dye): visible bands |
